{"source": "patent US9523100B2", "about": "“Pesticidal compositions and related methods” (DOW AGROSCIENCES LLC, priority 2013, dated 2016)", "key": {"[1]": {"system": "Green Peach Aphid (GPA) (Myzus persicae) (MYZUPE)", "assay": "Bioassay for Green Peach Aphid (GPA), foliar spray on cabbage seedlings", "format": "in vivo", "details": "72 h, read-out: GPA 200 ppm, % Control (or Mortality) rating", "outline": "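Foliar spray test: 200 ppm solutions (0.025% Tween 20 in water, 20% acetone/methanol) applied to both leaf sides of aphid-infested cabbage seedlings. After 3 days at about 25° C, live aphids per plant were counted; control corrected to solvent check via Abbott's formula.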"}, "[2]": {"system": "Sweetpotato Whitefly-Crawler (WF) (Bemisia tabaci) (BEMITA)", "assay": "Insecticidal test for Sweetpotato Whitefly-Crawler (WF) in foliar spray assay on cotton plants", "format": "in vivo", "details": "216 h, read-out: WF 200 ppm, % Control (or Mortality) rating", "outline": "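Whitefly nymph control on egg-infested cotton (eggs laid 4–5 days pre-treatment), foliar spray at 200 ppm test compound. Live late-stage nymphs counted microscopically 9 days later at ~25 °C; control calculated by Abbott's formula relative to acetone-diluent-sprayed plants.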"}, "[3]": {"details": "200 ppm foliar spray on cabbage seedlings, graded after three days, Abbott corrected % control"}, "[4]": {"details": "200 ppm foliar spray on cotton plants, graded after 9 days, Abbott corrected % control"}}, "note": "Read-outs that look alike come from different tables or passages of the source.", "data": [{"smiles": "CCN(C(=O)CCN)c1cn(-c2cccnc2)nc1Cl", "note": "[Compound C2, 3-amino-N-(3-chloro-1-(pyridin-3-yl)-1H-pyrazol-4-yl)-N-ethylpropanamide]", "values": [{"measurement": "mortality at 200 ppm", "setting": "[1]; [3]", "result": "0 to 80", "unit": "%"}, {"measurement": "mortality at 200 ppm", "setting": "[2]; [4]", "result": "80 to 100", "unit": "%"}]}, {"smiles": "CCN(C(=O)CCNC(=O)CC(F)(F)F)c1cn(-c2cccnc2)nc1Cl", "note": "[Compound F63, N-(3-((3-Chloro-1-(pyridin-3-yl)-1H-pyrazol-4-yl)(ethyl)amino)-3-oxopropyl)-3,3,3-trifluoropropanamide]", "values": [{"measurement": "mortality at 200 ppm", "setting": "[1]; [3]", "result": "80 to 100", "unit": "%"}, {"measurement": "mortality at 200 ppm", "setting": "[2]; [4]", "result": "80 to 100", "unit": "%"}]}, {"smiles": "CN(C(=O)CN1CCSC1=O)c1cn(-c2cccnc2)nc1Cl", "note": "[Compound F7, N-(3-Chloro-1-(pyridin-3-yl)-1H-pyrazol-4-yl)-N-methyl-2-(2-oxothiazolidin-3-yl)acetamide]", "values": [{"measurement": "mortality at 200 ppm", "setting": "[1]; [3]", "result": "0 to 80", "unit": "%"}, {"measurement": "mortality at 200 ppm", "setting": "[2]; [4]", "result": "80 to 100", "unit": "%"}]}, {"smiles": "CCN(C(=O)CCC(=O)NC1CC1C(F)(F)F)c1cn(-c2cccnc2)nc1Cl", "note": "(stereo not drawn) [Compound F54, N1-(3-Chloro-1-(pyridin-3-yl)-1H-pyrazol-4-yl)-N1-ethyl-N4-(2-(trifluoromethyl)cyclopropyl) succinamide]", "values": [{"measurement": "mortality at 200 ppm", "setting": "[1]; [3]", "result": "80 to 100", "unit": "%"}, {"measurement": "mortality at 200 ppm", "setting": "[2]; [4]", "result": "80 to 100", "unit": "%"}]}, {"smiles": "O=C(CCC(=O)N(CC1CC1)c1cn(-c2cccnc2)nc1Cl)N1CCCCC1", "note": "[Compound F82, N-(3-Chloro-1-(pyridin-3-yl)-1H-pyrazol-4-yl)-N-(cyclopropylmethyl)-4-oxo-4-(piperidin-1-yl)butanamide]", "values": [{"measurement": "mortality at 200 ppm", "setting": "[1]; [3]", "result": "0 to 80", "unit": "%"}, {"measurement": "mortality at 200 ppm", "setting": "[2]; [4]", "result": "80 to 100", "unit": "%"}]}, {"smiles": "CCN1CC(CC(=O)N(CC)c2cn(-c3cccnc3)nc2Cl)C1=O", "note": "(stereo not drawn) [Compound F84, N-(3-Chloro-1-(pyridin-3-yl)-1H-pyrazol-4-yl)-N-ethyl-2-(1-ethyl-2-oxoazetidin-3-yl)acetamide]", "values": [{"measurement": "mortality at 200 ppm", "setting": "[1]; [3]", "result": "80 to 100", "unit": "%"}, {"measurement": "mortality at 200 ppm", "setting": "[2]; [4]", "result": "80 to 100", "unit": "%"}]}, {"smiles": "CCN(C(=O)C1CCCN(C(=O)CC(F)(F)F)C1)c1cn(-c2cccnc2)nc1Cl", "note": "(stereo not drawn) [FA42, N-(3-Chloro-1-(pyridin-3-yl)-1H-pyrazol-4-yl)-N-ethyl-1-(3,3,3-trifluoropropanoyl)piperidine-3-carboxamide]", "values": [{"measurement": "mortality at 200 ppm", "setting": "[1]; [3]", "result": "80 to 100", "unit": "%"}, {"measurement": "mortality at 200 ppm", "setting": "[2]; [4]", "result": "0 to 80", "unit": "%"}]}, {"smiles": "CCSC(=O)N(C)C(C)C(=O)N(CC)c1cn(-c2cccnc2)nc1Cl", "note": "(stereo not drawn) [Compound F79, S-Ethyl (1-((3-chloro-1-(pyridin-3-yl)-1H-pyrazol-4-yl)(ethyl)amino)-1-oxopropan-2-yl)(methyl) carbamothioate]", "values": [{"measurement": "mortality at 200 ppm", "setting": "[1]; [3]", "result": "0 to 80", "unit": "%"}, {"measurement": "mortality at 200 ppm", "setting": "[2]; [4]", "result": "0 to 80", "unit": "%"}]}, {"smiles": "CCN(C(=O)C1CN(C(=O)OC(C)(C)C)C1)c1cn(-c2cccnc2)nc1Cl", "note": "[Compound F26]", "values": [{"measurement": "mortality at 200 ppm", "setting": "[1]; [3]", "result": "80 to 100", "unit": "%"}, {"measurement": "mortality at 200 ppm", "setting": "[2]; [4]", "result": "0 to 80", "unit": "%"}]}, {"smiles": "CN(CC(=O)N(C)c1cn(-c2cccnc2)nc1Cl)C(=O)OC(C)(C)C", "note": "[Compound F90, tert-Butyl (2-((3-chloro-1-(pyridin-3-yl)-1H-pyrazol-4-yl)(methyl)amino)-2-oxoethyl)(methyl) carbamate]", "values": [{"measurement": "mortality at 200 ppm", "setting": "[1]; foliar", "result": "0 to 80", "unit": "%"}, {"measurement": "mortality at 200 ppm", "setting": "[2]; foliar", "result": "80 to 100", "unit": "%"}]}, {"smiles": "CCN(C(=O)CCN(CC(F)F)C(=O)C1CC1(F)F)c1cn(-c2cccnc2)nc1Cl", "note": "(stereo not drawn) [Compound F34, N-(3-((3-chloro-1-(pyridin-3-yl)-1H-pyrazol-4-yl)(ethyl)amino)-3-oxopropyl)-N-(2,2-difluoroethyl)-2,2-difluorocyclopropanecarboxamide]", "values": [{"measurement": "mortality at 200 ppm", "setting": "[1]; [3]", "result": "0 to 80", "unit": "%"}, {"measurement": "mortality at 200 ppm", "setting": "[2]; [4]", "result": "80 to 100", "unit": "%"}]}, {"smiles": "CCN(C(=O)CCC(=O)N(C)CC(F)(F)F)c1cn(-c2cccnc2)nc1Cl", "note": "[Compound F85, N1-(3-Chloro-1-(pyridin-3-yl)-1H-pyrazol-4-yl)-N1-ethyl-N4-methyl-N4-(2,2,2-trifluoroethyl) succinamide]", "values": [{"measurement": "mortality at 200 ppm", "setting": "[1]; [3]", "result": "80 to 100", "unit": "%"}, {"measurement": "mortality at 200 ppm", "setting": "[2]; [4]", "result": "80 to 100", "unit": "%"}]}, {"smiles": "CCN(C(=O)Cn1ccccc1=O)c1cn(-c2cccnc2)nc1Cl", "note": "[Compound F122, N-(3-Chloro-1-(pyridin-3-yl)-1H-pyrazol-4-yl)-N-ethyl-2-(2-oxopyridin-1(2H)-yl)acetamide]", "values": [{"measurement": "mortality at 200 ppm", "setting": "[1]; [3]", "result": "0 to 80", "unit": "%"}, {"measurement": "mortality at 200 ppm", "setting": "[2]; [4]", "result": "80 to 100", "unit": "%"}]}, {"smiles": "CCN(C(=O)C1CCN(C(=O)CCC(F)(F)F)CC1)c1cn(-c2cccnc2)nc1Cl", "note": "[FA6, N-(3-Chloro-1-(pyridin-3-yl)-1H-pyrazol-4-yl)-N-ethyl-1-(4,4,4-trifluorobutanoyl)piperidine-4-carboxamide]", "values": [{"measurement": "mortality at 200 ppm", "setting": "[1]; [3]", "result": "80 to 100", "unit": "%"}, {"measurement": "mortality at 200 ppm", "setting": "[2]; [4]", "result": "0 to 80", "unit": "%"}]}, {"smiles": "CCN(C(=O)CC1CNC1=O)c1cn(-c2cccnc2)nc1Cl", "note": "(stereo not drawn) [Compound F71, N-(3-chloro-1-(pyridin-3-yl)-1H-pyrazol-4-yl)-N-ethyl-2-(2-oxoazetidin-3-yl)acetamide]", "values": [{"measurement": "mortality at 200 ppm", "setting": "[1]; [3]", "result": "80 to 100", "unit": "%"}, {"measurement": "mortality at 200 ppm", "setting": "[2]; [4]", "result": "80 to 100", "unit": "%"}]}, {"smiles": "CCN(C(=O)C1CN(C(=O)CCC(F)(F)F)C1)c1cn(-c2cccnc2)nc1Cl", "note": "[FA15, N-(3-Chloro-1-(pyridin-3-yl)-1H-pyrazol-4-yl)-N-ethyl-1-(4,4,4-trifluorobutanoyl)azetidine-3-carboxamide]", "values": [{"measurement": "mortality at 200 ppm", "setting": "[1]; [3]", "result": "80 to 100", "unit": "%"}, {"measurement": "mortality at 200 ppm", "setting": "[2]; [4]", "result": "80 to 100", "unit": "%"}]}, {"smiles": "CCN(C(=O)CCC(=O)N1CCCCCC1)c1cn(-c2cccnc2)nc1Cl", "note": "[Compound F100, 4-(Azepan-1-yl)-N-(3-chloro-1-(pyridin-3-yl)-1H-pyrazol-4-yl)-N-ethyl-4-oxobutanamide]", "values": [{"measurement": "mortality at 200 ppm", "setting": "[1]; [3]", "result": "0 to 80", "unit": "%"}, {"measurement": "mortality at 200 ppm", "setting": "[2]; [4]", "result": "80 to 100", "unit": "%"}]}, {"smiles": "CCN(C(=O)CNC(=O)CCC(F)(F)F)c1cn(-c2cccnc2)nc1Cl", "note": "[Compound F97, N-(2-((3-Chloro-1-(pyridin-3-yl)-1H-pyrazol-4-yl)(ethyl)amino)-2-oxoethyl)-4,4,4-trifluorobutanamide]", "values": [{"measurement": "mortality at 200 ppm", "setting": "[1]; [3]", "result": "80 to 100", "unit": "%"}, {"measurement": "mortality at 200 ppm", "setting": "[2]; [4]", "result": "80 to 100", "unit": "%"}]}, {"smiles": "CCN(C(=O)C1CN(C(=O)CC(F)(F)F)C1)c1cn(-c2cccnc2)nc1Cl", "note": "[Compound P24, N-(3-Chloro-1-(pyridin-3-yl)-1H-pyrazol-4-yl)-N-ethyl-1-(3,3,3-trifluoropropanoyl)azetidine-3-carboxamide]", "values": [{"measurement": "mortality at 200 ppm", "setting": "[1]; [3]", "result": "80 to 100", "unit": "%"}, {"measurement": "mortality at 200 ppm", "setting": "[2]; [4]", "result": "0 to 80", "unit": "%"}]}, {"smiles": "CCN(C(=O)CNC(=O)CC(F)(F)F)c1cn(-c2cccnc2)nc1Cl", "note": "[Compound F57, N-(2-((3-Chloro-1-(pyridin-3-yl)-1H-pyrazol-4-yl)(ethyl)amino)-2-oxoethyl)-3,3,3-trifluoropropanamide]", "values": [{"measurement": "mortality at 200 ppm", "setting": "[1]; [3]", "result": "80 to 100", "unit": "%"}, {"measurement": "mortality at 200 ppm", "setting": "[2]; [4]", "result": "80 to 100", "unit": "%"}]}, {"smiles": "CCN(C(=O)CCC=NOCCC1CC1(F)F)c1cn(-c2cccnc2)nc1Cl", "note": "(mixture of isomers) [FA61, (E/Z)-N-(3-Chloro-1-(pyridin-3-yl)-1H-pyrazol-4-yl)-4-((2-(2,2-difluorocyclopropyl)ethoxy)imino)-N-ethylbutanamide]", "values": [{"measurement": "mortality at 200 ppm", "setting": "[1]; [3]", "result": "80 to 100", "unit": "%"}, {"measurement": "mortality at 200 ppm", "setting": "[2]; [4]", "result": "80 to 100", "unit": "%"}]}]}
